Where two headings read alike, the source gives them in different places.
What was measured:
[1] = test system: human fibroblast/keratinocyte culture; assay: Total collagen produced in culture medium of co-cultured human fibroblasts/keratinocytes after administration of NAC; type: cell-based; details: for total collagen produced: 13 days, control without NAC 77.1-99.5 μg/mL, FIG. 27
Procedure: (§1) The human keratinocyte culture obtained by culture for 7 days according to Example 3.1.2 was removed, followed by washing once with PBS. Thereafter, 3 mL of Accutase was added, and then the keratinocytes were suspended by treatment with chemical reaction for 10 minutes in an incubator at 37° C. After 40 mL of PBS was added to the Accutase solution, the mixture was centrifuged at 800 rpm and 25° C. for 5 minutes, and the supernatant was then removed. To the keratinocyte precipitate, FAD medium (DMEM/F12 (1:1)+Glutamax-I, 1% penicillin, 2 mM L-glutamine, 10 mg/L insulin, 5.5 mg/L transferrin, 5 μg/L selenite, 50 μM L-ascorbic acid 2-phosphate, 1 μM hydrocortisone, 0.02 nM triiodothyronine (T3), 10 μg/L epidermal growth factor (EGF), and 1 μM isoproterenol) supplemented with 5% fatal bovine serum was added. The human dermal fibroblasts culture obtained by culture for 7 days in Example 3.1.1 was removed, and then the keratinocytes were dispensed thereon at a density of 1-2×10^6 cells per culture dish and cultured in an incubator at 37° C. for 24 hours.
(§2) The human fibroblast/keratinocyte culture obtained by culture for 24 hours according to Example 3.1.3 was removed, followed by washing once with PBS. To 35 mL of a serum-free FAD medium (DMEM/F12 (1:1)+Glutamax-I, 1% penicillin, 2 mM L-glutamine, 10 mg/L insulin, 5.5 mg/L transferrin, 5 μg/L selenite, 50 μM L-ascorbic acid 2-phosphate, 1 μM hydrocortisone, 0.02 nM triiodothyronine (T3), 10 μg/L epidermal growth factor (EGF), and 1 μM isoproterenol), N-acetyl cysteine (NAC) was added at a concentration of 0.1 mM, 0.5 mM, 1 mM, or 5 mM, and then the cells were cultured in an incubator at 37° C. for a total of 13 days while the medium was exchanged every 2-3 days. The culture obtained by previous culture was collected.
(§3) The analysis method followed the manufacturer's instructions.

Human fibroblasts [2] = details: for extracellular matrix production: 0.02 nM triiodothyronine or 1 μM isoprenaline added to medium with insulin, EGF and hydrocortisone (Table 2), FIGS. 10 and 11
Procedure: as §3
Culture media each lacking an individual factor were prepared, and then culture was performed according to Example 1.1.
Then, culture was performed according to Example 1.1.

[3] = test system: human fibroblast/keratinocyte culture; assay: Type IV collagen produced in culture medium of co-cultured human fibroblasts/keratinocytes after administration of vitamin C; type: cell-based; details: serum-free FAD medium, 13 days, FIG. 28
Procedure: as §1
as §2, with “vitamin C” for “N-acetyl cysteine (NAC)”, “50 μM, 100 μM,” for “0.1 mM, 0.5 mM, 1 mM,”, “200 μM,” for “5 mM,”
as §3

Human fibroblasts [4] = assay: Laminin content in cell culture of single-cultured human fibroblasts (anti-human laminin antibody plate kit, absorbance 450 nm); details: 50 μM ascorbate-2-phosphate added to medium with insulin, EGF and hydrocortisone (Table 2); FIG. 10
Procedure: To measure the amount of human laminin component in the extracellular matrix present in a culture obtained according to each example described below, quantitative analysis was conducted by using a commercially available analysis kit (TakaRa, MK107). The analysis method followed the manufacturer's instructions. Specifically, the culture was added onto a 96-well plate coated with an anti-human laminin antibody, followed by incubation. Thereafter, residues were washed off, and a chromogenic enzyme-conjugated specific antibody was added, followed by incubation. Then, quantitative analysis was conducted by measurement of the absorbance at 450 nm.
Human fibroblasts were seeded at a density of 3×10^5 cells per 150-mm^2 culture dish. […]
(§4) After being cultured according to Example 1.1.1, the cells were further cultured from day 8 using a serum-free/xeno-free culture medium [Dulbecco's Modified Eagle Medium: Ham's F-12 (1:1) supplemented with 100 (DMEM/F12) U/mL penicillin/streptomycin, 2 mM L-alanyl-L-glutamine, 5 μg/L selenium, 50 M ascorbate-2-phosphate, 10 mg/L insulin, 1 μM hydrocortisone, 0.02 nM triiodothyronine, 1 μM isoprenaline, and 10 μg/L epidermal growth factor] while the medium was exchanged at intervals of 2 to 3 days. […] The cell culture after collection was analyzed according to Example 3. […]

Human fibroblasts [5] = assay: Total collagen content in cell culture of single-cultured human fibroblasts (Sirius Red kit, absorbance 530 nm); details: 50 μM ascorbate-2-phosphate added to medium with insulin, EGF and hydrocortisone (Table 2); FIG. 11
Procedure: To measure the human collagen content in the extracellular matrix present in a culture obtained according to each example described below, quantitative analysis was conducted by utilizing a commercially available Sirius Red kit (Chondrex, #9062). The analysis method followed the manufacturer's instructions. Specifically, Sirius Red solution was added to the culture, followed by incubation, and the precipitated collagen was then mixed with an acidic solution and quantitatively analyzed by measurement of absorbance at 530 nm.
Human fibroblasts were seeded at a density of 3×10^5 cells per 150-mm^2 culture dish. The cells were cultured in high-glucose Dulbecco's Modified Eagle's Medium (DMEM) supplemented with 10% fetal bovine serum and 1% penicillin for 7 days while a growth medium was exchanged every 2-3 days.
as §4

[6] = NAC at a concentration of 1 mM or higher (1 mM, 5 mM)
[7] = factor individually removed from serum-free/xeno-free culture medium (Table 1), compared with medium containing all factors, FIGS. 8 and 9

CC(=O)N[C@@H](CS)C(=O)O [NAC, N-acetyl cysteine]
total collagen produced ([1]; 0.1 mM NAC in serum-free FAD medium): 122.1 to 137.5 µg/mL | total collagen produced ([1]; 0.5 mM NAC in serum-free FAD medium): 112.7 to 130.9 µg/mL | amount of collagen produced [1, 6]: reduced | cytotoxicity [1, 6]: cytotoxicity was observed

O=C[C@H](O)[C@@H](O)[C@H](O)[C@H](O)CO [glucose]
amount of extracellular matrix produced (Human fibroblasts [2]; glucose concentration 55 mM in DMEM medium (compared with 5.5, 25 and 40 mM), FIGS. 14 and 15): reduced

C[C@]12CCC(=O)C=C1CC[C@@H]1[C@@H]2[C@@H](O)C[C@@]2(C)[C@H]1CC[C@]2(O)C(=O)CO [hydrocortisone, reference compound]
amount of extracellular matrix produced (Human fibroblasts [2]; [7]): significantly reduced

CC(C)NCC(O)c1ccc(O)c(O)c1 (centres unmarked) [isoprenaline, reference compound]
extracellular matrix production (Human fibroblasts [2]): affected

N[C@@H](Cc1cc(I)c(Oc2ccc(O)c(I)c2)c(I)c1)C(=O)O [triiodothyronine, reference compound]
extracellular matrix production (Human fibroblasts [2]): affected

O=C1O[C@H]([C@@H](O)CO)C(O)=C1O [vitamin C]
Type IV collagen produced ([3]; 50 μM vitamin C (called control group)): 4.17 µg/mL | Type IV collagen produced ([3]; 100 μM vitamin C): 5.6 µg/mL | Type IV collagen produced ([3]; 200 μM vitamin C): 5.69 µg/mL

ascorbate-2-phosphate
laminin production (Human fibroblasts [4]): did not affect | collagen production (Human fibroblasts [5]): greatly affected

insulin: additive of the serum-free/xeno-free culture medium, 10 mg/L
amount of extracellular matrix produced (Human fibroblasts [2]; [7]): significantly reduced

Source: patent US20260286308A1, “COMPOSITION CONTAINING EXTRACELLULAR MATRIX AND MATRIX-BOUND VESICLES FOR PRODUCING EXTRACELLULAR MATRIX AND PREPARATION METHOD THEREFOR” (HLB CELL CO., LTD, priority 2023, published 2026)
